Results: PubChem BioAssay AID553 (University of Pittsburgh Molecular Library Screening Center, 2006)
Activity calls are given as the source filed them. The rule behind the calls is not given here.

Biological target: Dual specificity protein phosphatase 6 (Rattus norvegicus) (UniProt Q64346)
Assay: rat DUSP6 enzyme activity inhibition – biochemical, in vitro, hit/probe assessment, dose response (AID 553)
Settings: recombinant MKP-3 phosphatase, fluorescence intensity

Dual specificity protein phosphatase 6 (Rattus norvegicus), sequence (Q64346 whole entry, looked up): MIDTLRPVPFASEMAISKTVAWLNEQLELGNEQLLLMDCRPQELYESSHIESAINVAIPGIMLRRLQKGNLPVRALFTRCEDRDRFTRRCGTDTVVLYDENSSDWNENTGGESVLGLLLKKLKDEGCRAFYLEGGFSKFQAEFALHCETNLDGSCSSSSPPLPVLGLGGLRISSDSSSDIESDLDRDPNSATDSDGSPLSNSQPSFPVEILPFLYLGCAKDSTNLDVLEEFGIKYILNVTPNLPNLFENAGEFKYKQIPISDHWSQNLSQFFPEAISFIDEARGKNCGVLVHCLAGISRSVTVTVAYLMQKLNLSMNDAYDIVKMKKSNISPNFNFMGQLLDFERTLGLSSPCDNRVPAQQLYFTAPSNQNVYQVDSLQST

| SMILES | IC50 |
| --- | --- |
| O=C1c2cccnc2C(Nc2ccc(S(=O)(=O)N3CCCCCC3)cc2)N1Cc1ccccc1 (configuration not stated) | > 50 µM (inactive) |
| COC(=O)C1=C(C)NC2=C(C(=O)c3ccccc32)C1c1ccc(-c2ccc(C(=O)O)cc2)o1 (configuration not stated) | > 50 µM (inactive) |
| N#C/C(=C(/O)CSc1nnc(Cc2cccs2)n1C1CCCCC1)c1nc2ccccc2[nH]1 | > 50 µM (inactive) |
| CCOC(=O)c1ccc(NC2c3ncccc3C(=O)N2Cc2ccc(F)cc2)cc1 (configuration not stated) | > 50 µM (inactive) |
| CCSCCOC(=O)C1=C(C)NC2=C(C(=O)CCC2)C1c1coc2ccccc2c1=O (configuration not stated) | > 50 µM (inactive) |
| O=C1C(C2=C(O)c3ccccc3C2=O)=Nc2ccccc21 | 18.3 µM |
| Oc1ccc2ccccc2c1C=NC12CN3CCN(CN(C3)C1)C2 | > 50 µM (inactive) |
